Legend:
MNK1 = MNK1 (Homo sapiens (Human), UniProt Q9BUB5); experiment: MNK Biochemical Enzymatic Assay (ADP-Glo), MNK1; conditions: 10 nM recombinant MNK1, 100 μM substrate peptide, 300 μM ATP; read-out: IC50 Mnk1
Protocol: (§1) Compounds are screened for MNK inhibition using the ADP-Glo kinase assay kit (Promega, catalogue No. V9101). All kinase reactions are performed in Reaction Buffer E (15 mM HEPES pH7.4, 20 mM NaCl, 1 mM EGTA, 10 mM MgCl2, 0.1 mg/ml BGG, and 0.02% Tween-20). […] Final DMSO concentration in each reaction is 1%.
(§2) Kinase reactions are carried out in 96-well half-area white flat-bottom polystyrene plates in a final volume of 25 μl. MNK1/2 enzymes are pre-incubated with compound and peptide substrate for 5 minutes prior to the addition of ATP. After the addition of ATP, kinase reactions are incubated at room temperature for 40 minutes. Reactions are subsequently stopped by the addition of 25 μl of ADP-Glo Reagent and incubating for an additional 40 minutes. The final luminescent signal used for kinase activity readout is produced by the addition of 45 μl of Kinase Detection Reagent (ADP-Glo kit, Promega) and incubating for 40 minutes.

MNK2 = MNK2 (Homo sapiens (Human), UniProt Q9HBH9); experiment: MNK Biochemical Enzymatic Assay (ADP-Glo), MNK2; conditions: 3 nM recombinant MNK2, 50 μM substrate peptide, 10 μM ATP
Protocol: as §1, §2

Phosphorylated eIF4E = experiment: peIF4E Signaling Cellular Assay (CisBio peIF4E HTRF); assay type: cell-based; conditions: cells incubated with compound for 2 hrs at 37° C., 12-point curve
Protocol: Phosphorylated eIF4E is assayed using the CisBio peIF4E HTRF® assay kit (CisBio, catalogue No. 64EF4PEG). Cells are plated in 96-well tissue-culture treated plate in appropriate growth medium (90 μL). Compounds (10×) are diluted using 3-fold serial dilutions in cell culture medium and added to cells. Plates are incubated for 2 hrs at 37° C. The cell supernatant is carefully removed either by aspirating supernatant or by flicking the plate. Immediately 50 μL of supplemented lysis buffer (1×) is added and incubated for at least 30 minutes at room temperature under shaking. After homogenization by pipeting up and down, 16 μL of cell lysate is transferred from the 96-well cell-culture plate to a 384-well small volume white plate. 4 μL of premixed antibody solutions (vol/vol) is prepared in the detection buffer and added. The plate is covered with a plate sealer and incubated overnight at room temperature. The fluorescence emissions at two different wavelengths are read (665 nm and 620 nm) on a Wallac Victor2. Emission ratios are converted into percent inhibitions and imported into GraphPad Prism software. […] IC50 values are determined using a nonlinear regression model available in GraphPad Prism 5.

Chain of MNK1 (Q9BUB5 whole entry): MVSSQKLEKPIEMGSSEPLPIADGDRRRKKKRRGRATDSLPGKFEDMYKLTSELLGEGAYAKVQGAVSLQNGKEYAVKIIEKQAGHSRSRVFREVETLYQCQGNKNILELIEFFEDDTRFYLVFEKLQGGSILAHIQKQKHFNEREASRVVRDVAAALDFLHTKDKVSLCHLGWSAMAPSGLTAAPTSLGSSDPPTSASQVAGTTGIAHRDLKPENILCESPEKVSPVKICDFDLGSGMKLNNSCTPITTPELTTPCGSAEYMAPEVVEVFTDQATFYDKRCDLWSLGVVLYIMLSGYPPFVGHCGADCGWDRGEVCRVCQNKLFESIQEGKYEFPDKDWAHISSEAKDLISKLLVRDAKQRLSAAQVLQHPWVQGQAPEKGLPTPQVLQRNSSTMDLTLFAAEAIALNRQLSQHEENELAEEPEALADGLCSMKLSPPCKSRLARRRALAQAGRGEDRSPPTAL
Chain of MNK2 (Q9HBH9 whole entry): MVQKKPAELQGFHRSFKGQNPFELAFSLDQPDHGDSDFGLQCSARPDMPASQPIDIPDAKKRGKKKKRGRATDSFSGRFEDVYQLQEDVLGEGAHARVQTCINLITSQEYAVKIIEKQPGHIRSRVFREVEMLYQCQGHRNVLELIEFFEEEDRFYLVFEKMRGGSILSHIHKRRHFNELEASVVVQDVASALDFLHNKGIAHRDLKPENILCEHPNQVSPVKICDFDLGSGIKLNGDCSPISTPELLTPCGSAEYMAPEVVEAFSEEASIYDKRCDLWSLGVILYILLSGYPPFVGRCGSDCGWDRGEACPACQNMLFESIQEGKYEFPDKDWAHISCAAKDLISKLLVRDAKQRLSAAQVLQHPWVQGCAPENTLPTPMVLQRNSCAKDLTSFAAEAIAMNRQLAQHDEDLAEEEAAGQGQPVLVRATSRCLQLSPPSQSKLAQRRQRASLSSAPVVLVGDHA

In the case of `CC1CC(=O)c2ccc(Nc3cc(NC(=O)C4CC4)ncn3)cc21` (stereo not drawn) [Cpd. No. 19, N-(6-((3-methyl-1-oxo-2,3-dihydro-1H-inden-5-yl)amino)pyrimidin-4-yl)cyclopropanecarboxamide], the IC50 (MNK1) is reported as < 10 nM, the IC50 (MNK2) is reported as 10 to 100 nM and the IC50 (Phosphorylated eIF4E) is reported as 50 to 1000 nM.

`CC1CNC(=O)c2ccc(Nc3ccncn3)cc21` (stereo not drawn) [Cpd. No. 22, 4-methyl-6-(pyrimidin-4-ylamino)-3,4-dihydroisoquinolin-1(2H)-one] gave an IC50 (MNK1) of 100 to 10000 nM, an IC50 (MNK2) of 10 to 100 nM and an IC50 (Phosphorylated eIF4E) of 1000 to 100000 nM.

`CC1Cc2cc(Nc3ccncn3)ccc2C(=O)N1` (stereo not drawn) [Cpd. No. 23, 3-methyl-6-(pyrimidin-4-ylamino)-3,4-dihydroisoquinolin-1(2H)-one] was tested, and the IC50 (MNK1) was 100 to 10000 nM, the IC50 (MNK2) was 10 to 100 nM and the IC50 (Phosphorylated eIF4E) was 1000 to 100000 nM.

With `CC1NC(=O)c2ccc(Nc3ccnc(NC(=O)C4CC4)c3)cc21` (stereo not drawn) [Cpd. No. 24, N-(4-((3-methyl-1-oxoisoindolin-5-yl)amino)pyridin-2-yl) cyclopropane carboxamide] the IC50 (MNK1) was < 10 nM, the IC50 (MNK2) was 100 to 10000 nM and the IC50 (Phosphorylated eIF4E) was 50 to 1000 nM.

For `Cc1cc(Nc2ccncn2)cc2c1C(=O)NC2C` (stereo not drawn) [Cpd. No. 33, 3,7-dimethyl-5-(pyrimidin-4-ylamino)isoindolin-1-one], the IC50 (MNK1) was 10 to 100 nM, the IC50 (MNK2) was 10 to 100 nM and the IC50 (Phosphorylated eIF4E) was 1000 to 100000 nM.

`CC1NC(=O)c2c(Cl)cc(Nc3ccncn3)cc21` (stereo not drawn) [Cpd. No. 35, 7-chloro-3-methyl-5-(pyrimidin-4-ylamino)isoindolin-1-one] was tested, and the IC50 (MNK1) was < 10 nM, the IC50 (MNK2) was < 10 nM and the IC50 (Phosphorylated eIF4E) was 50 to 1000 nM.

With `CC1(C)NC(=O)c2c(Cl)cc(Nc3ccncn3)cc21` [Cpd. No. 36, 7-chloro-3,3-dimethyl-5-(pyrimidin-4-ylamino)isoindolin-1-one] the IC50 (MNK1) was < 10 nM, the IC50 (MNK2) was < 10 nM and the IC50 (Phosphorylated eIF4E) was 50 to 1000 nM.

`CC1NC(=O)c2ccc(Nc3ncnc4c3OCCN4)cc21` (stereo not drawn) [Cpd. No. 38, 5-(7,8-dihydro-6H-pyrimido[5,4-b][1,4]oxazin-4-ylamino)-3-methyl-isoindolin-1-one] was tested, and the IC50 (MNK1) was 10 to 100 nM, the IC50 (MNK2) was 100 to 10000 nM and the IC50 (Phosphorylated eIF4E) was 1000 to 100000 nM.
